Activity calls are given as the source filed them.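 How the source made its calls: active means EC50 under a set limit in control cells lacking the mosquito receptor, marking a fluorescence artifact; inactive means the rest.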
biological target: HEK293 Galpha15/GCaMP6s without NPYLR7, calcium fluorescence; assay: calcium response in NPYLR7-null HEK293 cells, dose response, counter-screen for mosquito NPYLR7 agonist project, cell-based, HEK293 lacking NPYLR7 (AID 1259426);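 further: potency for a rise in fluorescence over baseline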

| Compound | EC50 |
| --- | --- |
| CCOC(=O)N1CCN(c2ccc(/C=C(\C#N)c3nc4ccccc4[nH]3)o2)CC1 | > 20 µM (inactive) |
| COc1ccc(/C=C2\Oc3c(ccc4c3CN(CC3CCCO3)CO4)C2=O)cc1 (configuration not stated) | 9.33 µM |
| CCOC(=O)N1CCC(NC(=O)c2sc3nc4c(c(C(F)(F)F)c3c2N)CC(C)CC4)CC1 (configuration not stated) | > 20 µM (inactive) |
| N#CC(C#N)=C1C=C2C=C(N3CCCCC3)CCC2CC1 (configuration not stated) | < 0.039 µM |
| O=C1/C(=C/c2cccc(Cl)c2)Oc2c1ccc(O)c2CN1CCN(CCO)CC1 | 11.8 µM |
| CCNc1ccc(OC)nc1 | > 20 µM (inactive) |
| N#Cc1c(N)nc2c(c1N)C(Sc1ccccc1)c1ccc(O)cc1O2 (configuration not stated) | < 0.039 µM |
| CC(=O)OC(C)C[N+](C)(C)C (configuration not stated) | > 20 µM (inactive) |
| O=C(NCCSc1ccc(Cl)cc1)c1ccc2c(=O)n3c(nc2c1)CCC3 | > 20 µM (inactive) |
| COc1ccc(N2C(=O)/C(=C\c3ccc[nH]3)N(C)C2=S)c([N+](=O)[O-])c1 | > 20 µM (inactive) |
| O=C(O)c1ccccc1-c1c2cc(Br)c(=O)cc-2oc2[c]([Hg])c(O)c(Br)cc12 | < 0.039 µM |
| COc1cc(C=CC(=O)c2ccc3c(c2)OCCO3)cc(Br)c1O | 0.151 µM |
| COc1cccc(CN2COc3ccc4c(c3C2)O/C(=C\c2ccncc2)C4=O)c1 | 11.1 µM |
| COc1ccc(/C=C2\Oc3c(ccc4c3CN(C3CCS(=O)(=O)C3)CO4)C2=O)cc1 (configuration not stated) | 8.35 µM |
| COc1ccc(/C=C2\Oc3c(ccc4c3CN(CC3CCCO3)CO4)C2=O)cc1OC (configuration not stated) | 4.8 µM |
| O=C(c1snc2c(=O)n(Cc3ccccc3)c(=O)[nH]c12)N1CCSCC1 | > 20 µM (inactive) |
| CCN(CC)c1ccc(/C=C2/SC(=S)N(CC(=O)O)C2=O)cc1 | 0.355 µM |
| COc1cc(/C=C2\SC(=S)N(C(CC(=O)O)C(=O)O)C2=O)ccc1O (configuration not stated) | 9.71 µM |
| Cc1cccc(Oc2nc3ccccn3c(=O)c2/C=C(\C#N)c2nc3ccccc3s2)c1 | > 20 µM (inactive) |
| Cc1oc(-c2cccc(NC(=O)CC(C)C)c2)nc1CNC(=O)Cc1cc(F)cc(F)c1 | > 20 µM (inactive) |
| CN(C)/C=C1\C(=O)N(c2c(Cl)cccc2Cl)c2cc(C=C(C#N)C#N)ccc21 | 18.4 µM |
| COc1ccc(-c2cnn(CCC(N)=O)c2)c(C)c1 | > 20 µM (inactive) |
| O=[N+]([O-])c1ccc(Cl)c2nonc12 | 4.83 µM |
| CCOc1cc(/C=C2/Oc3cc(O)ccc3C2=O)cc(Cl)c1OCC(=O)N(C)C | > 20 µM (inactive) |
| CN(C)c1ccc(/C=C2/SC(=S)N(CC(=O)O)C2=O)cc1 | 6.89 µM |
| CC(C)(C)NCC(O)c1ccc(O)c(CO)c1 (configuration not stated) | > 20 µM (inactive) |

| Compound | EC50 |
| --- | --- |
| CC(C)C(=O)Nc1sc2c(c1-c1nc3ccccc3s1)CCN(C(C)C)C2 | > 20 µM (inactive) |
| CCOc1ccc2nc3cc(N)ccc3c(N)c2c1 | 4.44 µM |
| N#C/C(=C/c1ccc(N2CCCCCC2)o1)c1ccc(F)cc1 | 19.3 µM |
| CCc1nn(C(C)C(=O)NC(C)CCc2ccco2)c(=O)c2cc3occc3n12 (configuration not stated) | 0.743 µM |
| O=C(CC(c1cccc([N+](=O)[O-])c1)c1c[nH]c2ccccc12)NC1CC1 (configuration not stated) | > 20 µM (inactive) |
| CC(C(=O)O)n1c(O)c(C=C2C=Nc3ccccc32)sc1=S (configuration not stated) | 6.92 µM |
| Cc1ccc(/C=C2/Oc3cc(O)ccc3C2=O)s1 | 17.2 µM |
| CC1(C)OC2OC(C(O)c3cc(O)c4c(c3O)C(=O)c3ccccc3C4=O)C(C)(O)C2O1 (configuration not stated) | 1.86 µM |
| FC(F)(F)c1cc(-c2cccs2)nc2ncnn12 | 18.3 µM |
| Cc1cc(O)c(CN2CCCC2)c2c1C(=O)/C(=C/c1cc3ccccc3o1)O2 | > 20 µM (inactive) |
| COc1cc(C=C2SC(=S)NC2=O)cc(Br)c1O | > 20 µM (inactive) |
| CCOC(=O)c1c(-c2ccccc2)csc1N=Cc1nc(-c2ccco2)oc1O | > 20 µM (inactive) |
| Cc1ccc(C(=O)C=Cc2ccc(N(C)C)cc2)o1 | < 0.039 µM |
| CCCCN(CC(=O)Nc1c(-c2ccccc2)c(C)nn1-c1ccccc1C)S(=O)(=O)c1ccc(F)cc1 | > 20 µM (inactive) |
| Cc1ccc(CN(Cc2ccc(F)cc2)C(=O)CNCCN2CCOCC2)s1 | > 20 µM (inactive) |
| CCN1CCN(Cc2c(O)ccc3c2O/C(=C\c2cc4cc(Br)ccc4o2)C3=O)CC1 | 6.94 µM |
| O=C1CCCC2Nc3ncnc(Cl)c3OC12 (configuration not stated) | 6.38 µM |
| CCCc1[nH]n(-c2ccc(Cl)cc2)c(=O)c1/C=C1\NC(=O)N(Cc2ccc(C)cc2)C1=O | > 20 µM (inactive) |
| CCCC(C(=O)O)N1C(=O)/C(=C/c2ccc(O)cc2)SC1=S (configuration not stated) | 8.28 µM |
| CCCCNC(=O)CCCCCNC(N)=O | > 20 µM (inactive) |
| CCN1CCc2c(sc(NC(=O)C3=COCCO3)c2-c2nc3ccccc3s2)C1 | 0.945 µM |
| Cc1ccc(CNC(=O)NC(c2ccc3c(c2)OCCCO3)C(C)C)cc1F (configuration not stated) | > 20 µM (inactive) |
| COc1ccc(OC)c(CCNc2nc3cnc(-c4cc(OC)c(OC)c(OC)c4)cc3n2C)c1 | > 20 µM (inactive) |
| COCCCN1COc2ccc3c(c2C1)O/C(=C\c1cc(OC)c(OC)c(OC)c1)C3=O | 11.4 µM |
| CC(=O)NCCc1ccc(O)c(O)c1 | 0.0722 µM |
| N#CC1C(=N)Oc2cc(O)ccc2C1c1ccccc1I (configuration not stated) | 7.42 µM |

Source: PubChem BioAssay AID1259426 (Fisher Drug Discovery Resource Center, 2018)
